In patent US20030077628A1, “Method of screening compounds for biological activity” (priority 2002, published 2003):

Target: receptor B-subunit derived from the Escherichia coli O157 toxin (Bacteriophage H30, UniProt P69178)
Assay type: binding
Settings: pH 7

receptor B-subunit derived from the Escherichia coli O157 toxin, sequence (P69178 21-89 limits assumed): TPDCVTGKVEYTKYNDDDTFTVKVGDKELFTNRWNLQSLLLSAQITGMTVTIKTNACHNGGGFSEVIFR

Compound | change of ligand resonances (one-bond 13C-1H splittings) in the presence of the receptor
OC[C@H]1O[C@H](O[C@@H]2[C@H](O)[C@@H](O)[C@H](O[C@H]3[C@H](O)[C@@H](O)C(O)O[C@@H]3CO)O[C@@H]2CO)[C@H](O)[C@@H](O)[C@H]1O (some centres unmarked) [Galα1-4Galβ1-4Glc] | shifted
OC[C@H]1O[C@@H](O[C@H]2[C@H](O)[C@@H](O)C(O)O[C@@H]2CO)[C@H](O)[C@@H](O)[C@H]1O (some centres unmarked) [Galβ1-4Glc, lactose] | unchanged
